Assay results taken from patent US12703706B2, “Anthelmintic compounds comprising a thienopyridine structure” (Intervet Inc., priority 2020, dated 2026).

Molecular target: human Maxi K channel (BK channel), KCNMA1 (KCa1.1) and beta1 (KCNMB1) subunits (Homo sapiens, UniProt Q12791)
Sequence (Q12791 1-1178 isoform Q12791-5): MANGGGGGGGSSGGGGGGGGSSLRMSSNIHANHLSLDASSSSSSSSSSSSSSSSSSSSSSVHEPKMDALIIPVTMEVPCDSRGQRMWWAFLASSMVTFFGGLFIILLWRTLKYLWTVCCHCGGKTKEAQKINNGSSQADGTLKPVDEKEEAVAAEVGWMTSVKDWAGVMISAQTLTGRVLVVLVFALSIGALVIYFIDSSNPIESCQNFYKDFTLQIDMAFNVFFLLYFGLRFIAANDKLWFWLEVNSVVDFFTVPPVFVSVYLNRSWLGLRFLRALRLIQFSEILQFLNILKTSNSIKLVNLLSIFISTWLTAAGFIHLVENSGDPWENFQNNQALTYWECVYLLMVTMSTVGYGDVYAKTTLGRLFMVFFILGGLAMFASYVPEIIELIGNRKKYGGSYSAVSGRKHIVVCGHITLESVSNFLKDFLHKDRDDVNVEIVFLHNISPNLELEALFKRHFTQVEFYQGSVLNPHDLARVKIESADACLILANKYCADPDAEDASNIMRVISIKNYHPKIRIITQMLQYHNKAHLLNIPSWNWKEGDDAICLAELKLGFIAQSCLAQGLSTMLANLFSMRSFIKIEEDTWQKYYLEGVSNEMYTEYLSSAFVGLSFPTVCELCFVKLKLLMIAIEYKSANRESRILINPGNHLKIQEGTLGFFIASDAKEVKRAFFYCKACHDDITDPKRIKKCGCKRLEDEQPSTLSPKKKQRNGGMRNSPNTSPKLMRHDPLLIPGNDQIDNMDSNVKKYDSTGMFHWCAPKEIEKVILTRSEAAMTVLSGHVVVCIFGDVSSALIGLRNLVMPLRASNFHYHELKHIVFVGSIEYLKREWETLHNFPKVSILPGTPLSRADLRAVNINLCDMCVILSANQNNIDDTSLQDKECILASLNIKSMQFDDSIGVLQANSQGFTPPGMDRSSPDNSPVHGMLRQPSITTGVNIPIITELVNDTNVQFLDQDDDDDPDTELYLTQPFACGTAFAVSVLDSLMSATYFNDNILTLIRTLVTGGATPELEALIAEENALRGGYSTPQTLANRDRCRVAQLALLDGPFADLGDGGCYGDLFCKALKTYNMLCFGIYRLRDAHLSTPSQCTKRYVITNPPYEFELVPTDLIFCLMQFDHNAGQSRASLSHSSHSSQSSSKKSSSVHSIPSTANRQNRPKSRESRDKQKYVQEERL
Sequence (Q16558 whole entry partner): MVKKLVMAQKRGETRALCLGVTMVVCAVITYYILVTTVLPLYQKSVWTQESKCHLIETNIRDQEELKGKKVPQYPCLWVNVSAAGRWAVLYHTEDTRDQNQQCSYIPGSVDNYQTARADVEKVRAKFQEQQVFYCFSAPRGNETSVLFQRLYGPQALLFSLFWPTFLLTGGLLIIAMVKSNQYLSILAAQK
Procedure: In Vitro Assay: Agonistic Activity at the Human Maxi K Channel (BK Channel)
A CHO K1 cell line was stably transfected with the KCNMA1 (KCa1.1, U11058) and betal (KCNMB1) subunits of the human Maxi K channel (Ponte et al, Molecular Pharmacology 2012, 81(4), 567-577).
Cells were seeded in microtiter plates (black 384-well MTP, clear bottom) in a concentration of 20,000 cells/well in 25 μl medium and cultured for 20 to 24 hours at 37° C. and 5% CO2. After incubation, 25 μl of FMP-dye Blue-Tyrode's was added to each well and incubated at room temperature for 30 min. Ten minutes after addition of 12.5 μl compound solution, the plates are transferred to the FLIPR for measurement.
For the membrane potential measurements, plates were placed in the FLIPR Penta (Molecular Devices). The baseline measurement of the fluorescence was stared for 20 sec (Exc. 510-545 nm, Emm. 565-625 nm). Potential channel opening measurement was started by addition of 25 μl KCl-Tyrode (final assay concentration of the KCl-Tyrode: 70 mM KCl, 2 mM CaCl2, 1 mM MgCl2, 0.8 mM NaH2PO4, 5 mM Glucose, 28 mM Hepes, pH 7.4, including the voltage sensitive dye). The complete measurement takes 150 s.
EC50 values were determined in triplicate utilizing compound dilution series. The data were determined at least in two independent tests. The data were proceeded by using the ActivityBase XE Runner software (IDBS) for curve fitting and calculation of the half-maximal effective concentration.

Structure (SMILES): O=C(N[C@H]1CCOc2ccccc21)c1cnc2c(-c3cc(Cl)cc(Cl)c3)csc2c1N1CCOCC1 [Compound 1]
- EC50: > 30 µM

Structure (SMILES): C[C@H](NC(=O)c1cnc2c(-c3cc(Cl)cc(Cl)c3)csc2c1N1CCOCC1)c1ccccc1 [Compound 2]
- EC50: > 30 µM

Structure (SMILES): O=C(N[C@H]1CCc2ccccc21)c1cnc2c(-c3cc(Cl)cc(Cl)c3)csc2c1N1CCOCC1 [Compound 3]
- EC50: > 30 µM

Structure (SMILES): O=C(N[C@H]1CCOc2ccccc21)c1cnc2c(-c3cccc(Cl)c3Cl)csc2c1N1CCOCC1 [Compound 4, (S)—N-(chroman-4-yl)-3-(2,3-dichlorophenyl)-7-morpholinothieno[3,2-b]pyridine-6-carboxamide]
- EC50: 5 to 10 µM

Structure (SMILES): C[C@H](NC(=O)c1cnc2c(-c3cccc(Cl)c3Cl)csc2c1N1CCOCC1)c1ccccc1 [Compound 5]
- EC50: > 30 µM

Structure (SMILES): O=C(N[C@H]1CCc2ccccc21)c1cnc2c(-c3cccc(Cl)c3Cl)csc2c1N1CCOCC1 [Compound 6]
- EC50: 5 to 10 µM

Structure (SMILES): CN(C)c1c(C(=O)N[C@H]2CCOc3ccccc32)cnc2c(-c3cc(Cl)cc(Cl)c3)csc12 [Compound 7]
- EC50: > 30 µM

Structure (SMILES): C[C@H](NC(=O)c1cnc2c(-c3cc(Cl)cc(Cl)c3)csc2c1N(C)C)c1ccccc1 [Compound 8]
- EC50: > 30 µM

Structure (SMILES): CN(C)c1c(C(=O)N[C@H]2CCc3ccccc32)cnc2c(-c3cc(Cl)cc(Cl)c3)csc12 [Compound 9]
- EC50: > 30 µM

Structure (SMILES): C[C@H](NC(=O)c1cnc2c(-c3cccc(Cl)c3Cl)csc2c1N(C)C)c1ccccc1 [Compound 11]
- EC50: > 30 µM

Structure (SMILES): CN(C)c1c(C(=O)N[C@H]2CCc3ccccc32)cnc2c(-c3cccc(Cl)c3Cl)csc12 [Compound 12]
- EC50: > 30 µM

Structure (SMILES): O=C(N[C@H]1CCCc2ccccc21)c1cnc2c(-c3cccc(Cl)c3Cl)csc2c1N1CCOCC1 [Compound 13]
- EC50: 5 to 10 µM

Structure (SMILES): O=C(N[C@H]1CCOc2ccccc21)c1cnc2c(-c3cc(F)cc(F)c3F)csc2c1N1CCOCC1 [Compound 15]
- EC50: > 30 µM

Structure (SMILES): O=C(N[C@H]1CCc2ccccc21)c1cnc2c(-c3cc(F)cc(F)c3F)csc2c1N1CCOCC1 [Compound 16]
- EC50: > 30 µM

Structure (SMILES): CN1CCN(c2c(C(=O)N[C@H]3CCCc4ccccc43)cnc3c(-c4cc(Cl)cc(Cl)c4)csc23)CC1 [Compound 18]
- EC50: > 30 µM

Structure (SMILES): CN1CCN(c2c(C(=O)N[C@H]3CCOc4ccccc43)cnc3c(-c4cc(Cl)cc(Cl)c4)csc23)CC1 [Compound 19]
- EC50: > 30 µM

Structure (SMILES): CN1CCN(c2c(C(=O)NC3CCOc4ccccc43)cnc3c(-c4cccc(Cl)c4Cl)csc23)CC1 (centres unmarked) [Compound 20]
- EC50: > 30 µM

Structure (SMILES): CN(C)c1c(C(=O)N[C@H]2CCCc3ccccc32)cnc2c(-c3cccc(Cl)c3Cl)csc12 [Compound 21]
- EC50: > 30 µM

Structure (SMILES): CN(C)c1c(C(=O)Nc2cccc3ccccc23)cnc2c(-c3cccc(Cl)c3Cl)csc12 [Compound 22]
- EC50: > 30 µM

Structure (SMILES): CN(C)c1c(C(=O)N[C@H]2CCOc3ccccc32)cnc2c(-c3cc(F)cc(F)c3F)csc12 [Compound 23]
- EC50: > 30 µM

Structure (SMILES): O=C(N[C@H]1CCOc2ccccc21)c1cnc2c(-c3cccc(F)c3F)csc2c1N1CCOCC1 [Compound 24]
- EC50: > 30 µM

Structure (SMILES): CN(C)c1c(C(=O)N[C@H]2CCc3ccccc32)cnc2c(-c3cc(F)cc(F)c3F)csc12 [Compound 25]
- EC50: > 30 µM

Structure (SMILES): O=C(N[C@H]1CCOc2ccccc21)c1cnc2c(-c3cccc(Cl)c3Cl)csc2c1N1CC(F)(F)C1 [Compound 26]
- EC50: > 30 µM

Structure (SMILES): O=C(NC1CCOc2ccccc21)c1cnc2c(-c3cccc(Cl)c3Cl)csc2c1N1CC(F)(F)C1 (centres unmarked) [Compound 27]
- EC50: > 30 µM

Structure (SMILES): CN(C)c1c(C(=O)NC2CCOc3ccccc32)cnc2c(-c3cccc(Cl)c3Cl)csc12 (centres unmarked) [Compound 28]
- EC50: > 30 µM

Structure (SMILES): CN1CCN(c2c(C(=O)N[C@H]3CCc4ccccc43)cnc3c(-c4cc(Cl)cc(Cl)c4)csc23)CC1 [Compound 29]
- EC50: > 30 µM

Structure (SMILES): CN1CCN(c2c(C(=O)NC3CCCc4ccccc43)cnc3c(-c4cc(Cl)cc(Cl)c4)csc23)CC1 (centres unmarked) [Compound 30]
- EC50: > 30 µM

Structure (SMILES): CN(C)c1c(C(=O)N[C@H]2CCCc3ccccc32)cnc2c(-c3cc(Cl)cc(Cl)c3)csc12 [Compound 31]
- EC50: > 30 µM

Structure (SMILES): O=C(N[C@H]1CCCc2ccccc21)c1cnc2c(-c3cc(Cl)cc(Cl)c3)csc2c1N1CCOCC1 [Compound 32]
- EC50: > 30 µM

Structure (SMILES): Cc1sc2c(N(C)C)c(C(=O)N[C@H]3CCc4ccccc43)cnc2c1-c1cc(Cl)cc(Cl)c1 [Compound 33]
- EC50: > 30 µM

Structure (SMILES): Cc1sc2c(N(C)C)c(C(=O)N[C@H]3CCc4ccccc43)cnc2c1-c1cccc(Cl)c1Cl [Compound 34]
- EC50: > 30 µM

Structure (SMILES): Cc1sc2c(N(C)C)c(C(=O)N[C@H]3CCCc4ccccc43)cnc2c1-c1cccc(Cl)c1Cl [Compound 35]
- EC50: > 30 µM

Structure (SMILES): Cc1sc2c(N(C)C)c(C(=O)Nc3cccc4ccccc34)cnc2c1-c1cccc(Cl)c1Cl [Compound 37]
- EC50: > 30 µM

Structure (SMILES): Cc1sc2c(N(C)C)c(C(=O)N[C@H]3CCCc4ccccc43)cnc2c1-c1cc(Cl)cc(Cl)c1 [Compound 38]
- EC50: > 30 µM

Structure (SMILES): O=C(N[C@H]1CCc2ccccc21)c1cnc2c(-c3cccc(Cl)c3Cl)csc2c1N1CC(F)(F)C1 [Compound 39]
- EC50: > 30 µM

Structure (SMILES): O=C(N[C@H]1CCOc2ccccc21)c1cnc2c(-c3cc(F)cc(F)c3F)csc2c1N1CC(F)(F)C1 [Compound 40]
- EC50: > 30 µM

Structure (SMILES): O=C(N[C@H]1CCc2ccccc21)c1cnc2c(-c3cc(F)cc(F)c3F)csc2c1N1CC(F)(F)C1 [Compound 41]
- EC50: > 30 µM

Structure (SMILES): O=C(N[C@H]1CCOc2ccccc21)c1cnc2c(-c3cccc(C(F)(F)F)c3)csc2c1N1CCOCC1 [Compound 42]
- EC50: > 30 µM

Structure (SMILES): COc1cccc(-c2csc3c(N4CCOCC4)c(C(=O)N[C@H]4CCOc5ccccc54)cnc23)c1 [Compound 43]
- EC50: > 30 µM

Structure (SMILES): Cc1cccc(-c2csc3c(N4CCOCC4)c(C(=O)N[C@H]4CCOc5ccccc54)cnc23)c1C [Compound 44]
- EC50: > 30 µM

Structure (SMILES): O=C(N[C@H]1CCOc2ccccc21)c1cnc2c(-c3cc(F)cc(F)c3)csc2c1N1CCOCC1 [Compound 45]
- EC50: > 30 µM

Structure (SMILES): CN(C)c1c(C(=O)N[C@H]2CCOc3ccccc32)cnc2c(-c3cccc(F)c3F)csc12 [Compound 46]
- EC50: > 30 µM

Structure (SMILES): CN(C)c1c(C(=O)N[C@H]2CCOc3ccccc32)cnc2c(-c3cccc(C(F)(F)F)c3)csc12 [Compound 47]
- EC50: > 30 µM

Structure (SMILES): COc1cccc(-c2csc3c(N(C)C)c(C(=O)N[C@H]4CCOc5ccccc54)cnc23)c1 [Compound 48]
- EC50: > 30 µM

Structure (SMILES): O=C(Nc1cccc2ccccc12)c1cnc2c(-c3cc(Cl)cc(Cl)c3)csc2c1N1CCOCC1 [Compound 49]
- EC50: > 30 µM

Structure (SMILES): CN(C)c1c(C(=O)Nc2cccc3ccccc23)cnc2c(-c3cc(Cl)cc(Cl)c3)csc12 [Compound 50]
- EC50: > 30 µM

Structure (SMILES): CN(C)c1c(C(=O)N[C@H]2CCOc3ccccc32)cnc2c(-c3cc(F)cc(F)c3)csc12 [Compound 51]
- EC50: > 30 µM

Structure (SMILES): O=C1CCN(c2c(C(=O)N[C@H]3CCOc4ccccc43)cnc3c(-c4cc(Cl)cc(Cl)c4)csc23)CC1 [Compound 52]
- EC50: > 30 µM

Structure (SMILES): Cc1sc2c(N(C)C)c(C(=O)Nc3cccc4ccccc34)cnc2c1-c1cc(Cl)cc(Cl)c1 [Compound 54]
- EC50: > 30 µM

Structure (SMILES): Cc1sc2c(N3CC(F)(F)C3)c(C(=O)N[C@H]3CCCc4ccccc43)cnc2c1-c1cccc(Cl)c1Cl [Compound 55]
- EC50: > 30 µM

Structure (SMILES): Cc1sc2c(N3CC(F)(F)C3)c(C(=O)N[C@H]3CCc4ccccc43)cnc2c1-c1cccc(Cl)c1Cl [Compound 57]
- EC50: > 30 µM

Structure (SMILES): Cc1sc2c(N3CC(F)(F)C3)c(C(=O)N[C@H]3CCCc4ccccc43)cnc2c1-c1cc(Cl)cc(Cl)c1 [Compound 58]
- EC50: > 30 µM

Structure (SMILES): Cc1sc2c(N3CC(F)(F)C3)c(C(=O)N[C@H]3CCOc4ccccc43)cnc2c1-c1cc(Cl)cc(Cl)c1 [Compound 59]
- EC50: > 30 µM

Structure (SMILES): Cc1sc2c(N3CC(F)(F)C3)c(C(=O)N[C@H]3CCc4ccccc43)cnc2c1-c1cc(Cl)cc(Cl)c1 [Compound 60]
- EC50: > 30 µM

Structure (SMILES): Cc1sc2c(N3CC(F)C3)c(C(=O)N[C@H]3CCCc4ccccc43)cnc2c1-c1cccc(Cl)c1Cl [Compound 61]
- EC50: > 30 µM

Structure (SMILES): Cc1sc2c(N3CC(F)C3)c(C(=O)N[C@H]3CCc4ccccc43)cnc2c1-c1cccc(Cl)c1Cl [Compound 63]
- EC50: > 30 µM

Structure (SMILES): Cc1sc2c(N3CC(F)C3)c(C(=O)N[C@H]3CCCc4ccccc43)cnc2c1-c1cc(Cl)cc(Cl)c1 [Compound 64]
- EC50: > 30 µM

Structure (SMILES): Cc1sc2c(N3CC(F)C3)c(C(=O)N[C@H]3CCc4ccccc43)cnc2c1-c1cc(Cl)cc(Cl)c1 [Compound 66]
- EC50: > 30 µM

Structure (SMILES): Cc1sc2c(N3CCOCC3)c(C(=O)N[C@H]3CCCc4ccccc43)cnc2c1-c1cc(Cl)cc(Cl)c1 [Compound 67]
- EC50: > 30 µM

Structure (SMILES): Cc1sc2c(N3CCOCC3)c(C(=O)N[C@H]3CCc4ccccc43)cnc2c1-c1cc(Cl)cc(Cl)c1 [Compound 69]
- EC50: > 30 µM

Structure (SMILES): Cc1sc2c(N3CCOCC3)c(C(=O)Nc3cccc4ccccc34)cnc2c1-c1cc(Cl)cc(Cl)c1 [Compound 70]
- EC50: > 30 µM

Structure (SMILES): Cc1sc2c(N3CCOCC3)c(C(=O)N[C@H]3CCCc4ccccc43)cnc2c1-c1cccc(Cl)c1Cl [Compound 71]
- EC50: > 30 µM

Structure (SMILES): Cc1sc2c(N3CCOCC3)c(C(=O)N[C@H]3CCc4ccccc43)cnc2c1-c1cccc(Cl)c1Cl [Compound 73]
- EC50: > 30 µM

Structure (SMILES): Cc1sc2c(N3CCOCC3)c(C(=O)Nc3cccc4ccccc34)cnc2c1-c1cccc(Cl)c1Cl [Compound 74]
- EC50: > 30 µM

Structure (SMILES): Cc1cccc(-c2csc3c(N(C)C)c(C(=O)N[C@H]4CCOc5ccccc54)cnc23)c1C [Compound 75]
- EC50: > 30 µM

Structure (SMILES): O=C(N[C@H]1CCOc2ccccc21)c1cnc2c(-c3cc(Cl)cc(Cl)c3)csc2c1N1CC(F)(F)C1 [Compound 76]
- EC50: > 30 µM

Structure (SMILES): O=C(N[C@H]1CCc2ccccc21)c1cnc2c(-c3cc(Cl)cc(Cl)c3)csc2c1N1CC(F)(F)C1 [Compound 77]
- EC50: > 30 µM

Structure (SMILES): CN(C)c1c(C(=O)NC2COc3ccccc32)cnc2c(-c3cccc(Cl)c3Cl)csc12 (centres unmarked) [Compound 78]
- EC50: > 30 µM

Structure (SMILES): O=C(NC1COc2ccccc21)c1cnc2c(-c3cccc(Cl)c3Cl)csc2c1N1CCOCC1 (centres unmarked) [Compound 79]
- EC50: > 30 µM

Structure (SMILES): O=C(NC1COc2ccccc21)c1cnc2c(-c3cc(Cl)cc(Cl)c3)csc2c1N1CCOCC1 (centres unmarked) [Compound 81]
- EC50: > 30 µM

Structure (SMILES): COCCNc1c(C(=O)N[C@H]2CCOc3ccccc32)cnc2c(-c3cc(F)cc(F)c3F)csc12 [Compound 82]
- EC50: > 30 µM
